In data set [1] the test system is liver organoids. Kind of data set: Acetyl-para-aminophenol toxicity and NAC rescue in liver organoids (live/dead, albumin, alpha-GST). It counts as cell-based, human.
Experimental: Drugs were dissolved in HCM media to reach the desired concentrations. […] Viability of the liver organoids was assessed using live/dead assay on day 14; albumin and alpha GST production were quantified from media collected on days 4, 7, 10, and 14, as described above.
For data set [2], the system named is liver organoids. Kind of data set: Recalled drug study on liver organoids (Cell-Titer Glo viability, live/dead). It counts as cell-based, human. The following applies: for EC50: Homo sapiens, liver organoids, 48 hours, read-out: half-maximal effective concentration (EC50), analysis of cell death. Here is the method:
(§1) Cryopreserved primary human hepatocytes were thawed according to manufacturer's protocol and the cells were directly used in experiments. LX2 hepatic stellate cells were trypsinized with 0.05% of trypsin (Hyclone) and counted. Forty thousand human hepatocytes and ten thousand LX2 hepatic stellate cells were suspended in 10 μl of formulation collagen gel (collagen, hyaluronic acid, and fibronectin) or without fibronectin for the formation of liver organoids. The organoids were engineered in an identical method to cell line organoid formation described above, except 24-well plates (Corning) were employed. The wells were filled with 2 mL of HCM media (Triangle Research Labs), which was replenished after collecting media aliquots for further analysis on day 4, 7 and 10 of the experiment. The organoids were cultured for 14 days.
The hepatoxic drugs bromfenac sodium, troglitazone and tienilic acid, recalled by the FDA, were chosen for this study.^12, 32 All the compounds were purchased from Sigma-Aldrich. Drugs were dissolved in DMSO (dimethyl sulfoxide) for stock concentrations of 100 mM. Concentrations of 1 μM, 10 μm, 100 μM, and 1000 μM were used for bromfenac sodium and tienilic acid. Concentrations of 1 μm, 10 μM, and 100 μM were used for troglitazone. The drug study was conducted for 48 hours in a 24 well plate at 37° C. with 5% CO2; each well in the plate containing one liver organoid in a 2 mL of media (control) or media with drug dissolved at the concentrations mentioned above (n≥6). The response of the liver organoids was assessed using Cell-Titer Glo Luminescent Cell Viability assay (Promega) prepared according to manufacturer's protocol. The results were quantified using the Veritas Microplate Luminometer setup according to manufacturer's instructions (Turner Bio Systems, Promega). Each condition was also subjected to live/dead staining (Thermo Fisher). Stained organoids were imaged using macro-confocal microscopy (Leica TCS LSI, Leica Microsystems).

Data set [3] concerns liver organoids. Kind of data set: cells. The class given is cell-based, human. As to conditions: 48 hours; for EC50: liver organoids, read-out: half-maximal effective concentration (EC50), analysis of cell death. Here is the method:
as §1
The environmental toxins glyphosate, mercury chloride, and lead chloride were purchased from Sigma-Aldrich. Drugs were dissolved in diH2O for stock concentrations of 50 mM (glyphosate), 10 mM (mercury chloride), and 20 mM (lead chloride). Concentrations of 1 mM, 5 mM, 10 mM, and 20 mM were used for glyphosate. Concentrations of 10 μM, 20 μM, 50 μM, and 100 μM were used for mercury chloride. Concentrations of 1 mM, 2 mM, 5 mM, and 10 mM were used for lead chloride. The drug study was conducted for 48 hours (n=7) and liver organoids were assessed for viability with ATP assay and live/dead assay as described above.

The test system of data set [4] is LX2 hepatic stellate cells. In words: Morphology of cells in HA-Collagen bioink with covalently bound laminin or fibronectin. The class given is cell-based. The following applies: 7 days, phalloidin and DAPI. Here is the method:
LX2 hepatic stellate cells were cultured within collagen or a HA-Collagen bioink with covalently bound laminin, fibronectin, or both. After 7 days, the constructs were fixed and stained with phalloidin to highlight the actin cytoskeleton of the cells and DAPI for nuclei. What is evident is that modulating laminin versus fibronectin changes the morphology and phenotype of the cells within the constructs. While not wishing to be bound to any particular theory, these changes are likely due to activation of different integrin receptors responsible for binding to collagen, laminin, and fibronectin cell adhesion motifs.

For data set [5], the system named is pfHSCs. Kind of data set: Cell adhesion and spreading behavior in bioink organoids with fibronectin. It counts as cell-based. As to conditions: 16 μg per 10 μL construct. The protocol:
Immobilization of fibronectin in the bioink was then verified by assessing cell adhesion and spreading behavior with pfHSCs. Fibronectin (16 μg per 10 μL construct) was added to collagen which was used to make organoids using the bioink with pfHSCs (3 million cells/mL). On days 1, 4, 7, and 10, organoids were removed from culture, fixed, and stained with phalloidin and DAPI.

For data set [6], the system named is HepG2 cells. Kind of data set: Cancer organoid proliferation and viability in gel formulations, HepG2. The class given is cell-based, human. As to conditions: days 4, 7, 10. Here is the method: The cells were trypsinized with 0.05% of trypsin (Hyclone) and counted. […] We chose this cell density for cancer organoid formation based on the results obtained from 3D organoid research performed in our lab.^31 The gel- cell mixture was pipetted in a well of a 48-well plate (Corning, N.Y.) that was pre-coated with 200 μl of polydimethylsiloxane (PDMS; Sylgard 184 elastomer kit, Dow Corning, Midland, Mich.) prepared according to manufacturer's protocol. The organoids were then crosslinked with UV light (Dymax BlueWave 75, Torrington, Conn.) on a high-intensity setting for 3 seconds. The wells were filled with 500 μL of media, which was replenished on day 4 and day 7 of the experiment. The organoids were maintained in culture for 10 days.
Biocompatibility of the different gel formulations was assessed in human cancer cell and liver organoids on days 4, 7, and 10 (n=3) using a standard live/dead cell viability kit (Thermo Fisher, Waltham, Mass.) according to the manufacturer's recommendation. […] Proliferation of cells within the different organoids was evaluated on days 4, 7, and 10 (n=3) by quantification of mitochondrial metabolism with a CellTiter 96® Aqueous One Solution Cell Proliferation Assay kit (Promega, Madison, Wis.) according to the manufacturer's protocol. Absorbance was quantified on a Spectramax M5 plate reader (Molecular Devices, Sunnyvale, Calif.) at 490 nm.

Data set [7] relates to liver organoids. Kind of data set: Liver organoids with and without fibronectin (live/dead, albumin, urea). The class given is cell-based. Here is the method: as §1
Cell viability was determined by live/dead assays (Thermo Fisher) on day 7 and 14 using representative images and by quantification of biomarkers from media collected on days 4, 7, 10, and 14 (n=3): Alpha-Glutathione s-transferase (alpha-GST) is secreted by liver cells upon cell death. The secreted levels of alpha-GST by the organoids are quantified using a GST alpha assay kit (GS41, Oxford Biomedical Research; Rochester Hills, Mich.). Absorbance was read on a Spectramax M5 plate reader (Molecular Devices) at 450 nm for alpha-GST.
The secreted levels of albumin and urea of the liver organoids were quantified from media collected on days 4, 7, 10, and 14 (n=3) using a Human Albumin ELISA Kit (Abeam; Boston, Mass. ab108788) and Urea Assay Kit (Abcam, ab83362), respectively. Absorbance was read on a Spectramax M5 plate reader (Molecular Devices) at 450 nm for albumin and at 430 nm for urea.

Data set [8] concerns HCT116. Kind of data set: Short term 5-FU drug study on organoids (MTS, live/dead ratio). As to conditions: drug treated organoids vs control. The class given is cell-based. The protocol: Three bioink formulations (“HA-collagen bioink”) were prepared and the viscoelastic behavior as well as cellular behavior within the material was quantified. The HA-collagen bioinks were formulated in three concentrations: 1:2, 1:3, and 1:4 (Heprasil® from Hystem-HP kit: methacrylated collagen type-1 from Advanced Biomatrix). Collagen was prepared as instructed by Advanced Biomatrix at 6 mg/mL and Heprasil® was prepared to 1% w/v with 0.1% photointiator in DiH2O and warmed to 37° C. Bioink formulations underwent rheological, cell viability, and 3D bioprinting testing conducted on the BioBots 1 device. As a comparison, tests were performed using the a Hystem-HP kit (thiolated hyaluronic acid and gelatin) made with 0.1% photointiator in DiH2O. Rheology was performed to determine shear elastic moduli G′ and 3D bioprinting was utilized to test printability of each material. Organoids were formed in 10 μL drops of bioink with […] per organoid, containing BXP3C, HCT116, Lx2, or pfHSC cell lines. Live/dead staining and picrosirus red collagen bundling analysis was performed on Lx2 and pfHSC organoids to assess viability and micro-architecture formation. A short term 5-Fluorouracil (5-FU) drug study was also conducted on HCT116 to show drug efficacy invariance between the Hystem-HP kit and 1:3 formulated bioink. […]

Setting [9] is: organoids containing fibronectin vs without.

`CC(=O)N[C@@H](CS)C(=O)O` [NAC, N-Acetyl-L-cysteine]: the “cell viability of liver organoids exposed to high-concentration APAP” value in data set [1] (10 mM APAP with 20 mM NAC) was “markedly improved cell viability”. For the same compound, the albumin production result in data set [1] (APAP 10 mM co-incubated with NAC 20 mM, day 14) is “partially rescued albumin production”. For the same compound, the alpha-GST production result in data set [1] (APAP 10 mM with NAC 20 mM, by day 14) is given as “noticeable decrease approaching control levels”.

For the compound `Nc1c(CC(=O)O)cccc1C(=O)c1ccc(Br)cc1` [bromfenac sodium], the EC50 in data set [2] was found to be 371 µM. The “cell death, live/dead analysis” value in data set [2] (at 1000 μM) is “near to complete cell death”.

Turning to `O=C(O)CNCP(=O)(O)O` [glyphosate], in data set [3] (Homo sapiens), the EC50 is 4100 µM. Also, in data set [3] (at 20 mM), the “cell death, live/dead analysis” value is listed as “near to complete cell death”.

Regarding `Cc1c(C)c2c(c(C)c1O)CCC(C)(COc1ccc(CC3SC(=O)NC3=O)cc1)O2` (centres unmarked) [troglitazone], the EC50 in data set [2] was 6.9 µM.

In the case of `[Cl][Pb][Cl]` [lead chloride], in data set [3], the EC50 came to 970 µM.

With `O=C(O)COc1ccc(C(=O)c2cccs2)c(Cl)c1Cl` [tienilic acid], the EC50 in data set [2] came to 491 µM.

For the compound fibronectin, the “morphology and phenotype of the cells” value in data set [4] is listed as “mesenchymal”. Moreover, the “cell elongation behavior earlier than in conditions without fibronectin” value in data set [5] amounted to 3 days. Further, the “proliferation of encapsulated cells in the organoids” value in data set [6] is “facilitated the proliferation”. Also, in data set [7] (setting [9]), the production of albumin result is given as “significantly greater” and the production of urea result was “significantly greater”. Further, the “cell viability, live/dead analysis” value in data set [7] (with vs without fibronectin, 14 days) is “comparable cell viability”.

With `O=c1[nH]cc(F)c(=O)[nH]1` [5-FU, 5-Fluorouracil], in data set [8], the “metabolism, MTS assay” value is recorded as “lower metabolism” and the “ratio of dead cells” value is on record as “larger ratio of dead cells”.

Turning to laminin, the “morphology and phenotype of the cells” value in data set [4] is “epithelial nature”.

As for `[Cl][Hg][Cl]` [mercury chloride], in data set [3], the EC50 stood at 28.2 µM.

For the origin of these results see patent publication US11629329B2, “Bioink compositions and methods of preparing and using the same” (Wake Forest University Health Sciences, priority 2017, dated 2023).
